Where a name gives a salt, the structure may show the parent alone.
Columns and labels:
mosquito larvae = test: toxicity assessment (larval mortality, Probit LD50) in mosquito larvae; format: in vivo; conditions: for LD50 in 4th instar (ppm) / LD50 (uM) in 4th instar: 4th instar larvae
Protocol: Compound was tested at concentrations within the range of 0.65-25.00 μM. Each assay included 60 larvae (1st instar or 4th instar) in 60 ml ddH2O containing either compound or control agent, mortality was recorded until 90% adult emerge rate. The percentage of mortality was transformed into Probit value and plotted against concentration to determine the LD50 value. Each assay was repeated at least three times with different batches of larvae. The mean and standard deviation values are listed above. ND=not determined due to very low mortality.
Compounds were tested at concentrations within the range of 0.65-25.00 μM. Each assay included 60 larvae (1st instar or 4th instar) in 60 ml ddH2O containing either compound or control agent. Mortality was recorded until 90% adult emerge rate. The percentage of mortality was transformed into Probit value and plotted against concentrations to determine the LD50 value. Each assay was repeated at least three times with different batches of larvae.

recombinant AeSCP-2 = molecular target: T1, recombinant AeSCP-2 (Aedes aegypti, UniProt Q86PR3); test: in vitro competition binding assay, NBD-cholesterol binding to AeSCP-2; set-up: species or system mosquito; conditions: at 0.1 mM concentration
T1 sequence (Q86PR3 1-110): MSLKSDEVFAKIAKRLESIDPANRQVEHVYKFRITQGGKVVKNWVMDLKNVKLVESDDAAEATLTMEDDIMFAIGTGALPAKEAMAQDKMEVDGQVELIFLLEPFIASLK
Protocol: At 0.1 mM concentration, α-mangostin decreased NBD-cholesterol binding to AeSCP-2 by 23-29%. […] Specifically, FIG. 1 illustrates the inhibitory effect of α-mangostin on NBD-cholesterol binding to recombinant AeSCP-2. RFU=relative NBD-cholesterol fluorescent unit normalized with NBD-cholesterol background readings. The assays that were used included 5 μM NBD-cholesterol+5 uM AeSCP-2+increasing concentrations of α-mangostin in […] potassium phosphate buffer (pH 7.4).

complement C3 = conditions: compared with phytoestrogens; FIG. 5, Hopert et al. 1998; cited from earlier work
[1] = tested on: mosquito 4th instar larvae; test: neutral lipid levels in the midgut of 4th instar larvae (Red Oil O staining); format: in vivo
Protocol: The newly molted 4th instar larvae were treated with DMSO (the negative control), 25 μM SCPI-1 (the positive control), and 10 μM α-mangostin. The midgut tissue was dissected out at the indicated point in time after treatment initiation. The dissected treated midgut tissue was stained with Red Oil O for neutral lipids in situ.

[2] = 1st instar larvae, same LD50 expressed in ppm
[3] = 1st instar larvae, tested 0.65-25.00 μM, mean ± SD
[4] = tested 0.65-25.00 μM, mean ± SD

Compound: COc1ccc(-c2cc(=O)c3c(O)cc(O)c(-c4cc(-c5cc(=O)c6c(O)cc(O)cc6o5)ccc4OC)c3o2)cc1 [isoginkgetin]
- LD50 (uM) in 1st instar (mosquito larvae; mosquito, in vivo): 11.29 ± 3.00 µM
- LD50 in 1st instar (ppm) (mosquito larvae; mosquito, in vivo): 6.60 ppm

Compound: COc1c(O)cc2oc3cc(O)c(CC=C(C)C)c(O)c3c(=O)c2c1CC=C(C)C [α-mangostin, 3,6,8-Trihydroxy-2-methoxy-1,7-bis(3-methylbut-2-enyl)xanthen-9-one]
- decrease of NBD-cholesterol binding to AeSCP-2 (recombinant AeSCP-2): 23-29%
- LD50 in 1st instar (ppm) (mosquito larvae; [2]): 1.12 ppm
- LD50 (uM) in 1st instar (mosquito larvae; [3]): 2.73 ± 2.46 µM
- LD50 in 4th instar (ppm) (mosquito larvae; same LD50 expressed in ppm): (or, 4.18 ppm)
- LD50 (uM) in 4th instar (mosquito larvae; [4]): 10.18 ± 1.49 µM
- reproductive side effects in mammals, measured by formation of complement C3 (complement C3): does not induce reproductive side effects
- neutral lipids in the midgut ([1]; 10 μM α-mangostin, after 24 hours treatment, 4th instar larvae): scant amounts of neutral lipids

Compound: COc1c2c(c(CC=C(C)C)c3oc(=O)c(-c4ccc(O)cc4)c(O)c13)OC(C)(C)C=C2 [lonchocarpic acid]
- LD50 in 1st instar (ppm) (mosquito larvae; [2]): 5.21 ppm
- LD50 (uM) in 1st instar (mosquito larvae; [3]): 11.99 ± 1.93 µM

Compound: CC(=O)Nc1ccc(Nc2nc(-c3ccc(Cl)c(Cl)c3)cs2)cc1 [SCPI-1, N-(4-{[4-(3,4-dichlorophenyl)-1,3-thiazol-2-yl]amino}phenyl)acetamide hydrobromide, reference compound]
- LD50 in 1st instar (ppm) (mosquito larvae; [2]): 1.93 ppm
- LD50 (uM) in 1st instar (mosquito larvae; [3]): 4.21 ± 0.38 µM
- LD50 in 4th instar (ppm) (mosquito larvae; same LD50 expressed in ppm): (or, 11.04 ppm)
- LD50 (uM) in 4th instar (mosquito larvae; [4]): 24.04 ± 4.16 µM
- fraction of midgut neutral lipids depleted ([1]; 25 μM SCPI-1, 24 hour-old 4th instar larvae): about ½

Compound: obtusauione
- LD50 in 1st instar (ppm) (mosquito larvae; [2]): 1.62 ppm
- LD50 (uM) in 1st instar (mosquito larvae; [3]): 6.36 ± 1.70 µM

From patent US7981438B2, “Use of α-mangostin as a mosquito larvicide” (Wisconsin Alumni Research Foundation, priority 2007, dated 2011)
